This note sets out measurements from patent US20100120858A1, “Piperidine Derivatives” (Pfizer Inc., priority 2006, published 2010).

For orientation: Ki means a measure of affinity in units of concentration, obtained from inhibition or displacement. Low readings indicate a stronger hold on the target, high ones a looser hold on the target. A word on the inhibition in vivo: it is how much of the control response was suppressed. High values mean strong suppression, low ones little suppression. The term melting point denotes the temperature, or range, at which the solid turns liquid.

In data set [1] the target is human norepinephrine transporter (Homo sapiens, UniProt P23975). Put plainly: Human norepinephrine (hNET) receptor binding, [125I]-RTI-55. The following applies: membranes of HEK-293 cells transfected with human norepinephrine transporter cDNA; 50 pM [125I]-RTI-55; IC50 converted by Cheng-Prusoff. Put shortly:
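Membranes from HEK-293 cells expressing human NET, incubated 90 min at room temperature with 50 pM [125I]-RTI-55 and compound (10^−5 to 10^−12 M) in Krebs-HEPES pH 7.4. Nonspecific binding defined with 10 μM desipramine; filter-bound counts gave IC50, converted to Ki by Cheng-Prusoff.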

The target in data set [2] is human serotonin transporter (Homo sapiens, UniProt P31645). The experiment in a line: Human serotonin (hSERT) receptor binding, [125I]-RTI-55. The following applies: membranes of HEK-293 cells transfected with human serotonin transporter cDNA, IC50 converted by Cheng-Prusoff. Put shortly:
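Membranes from HEK-293 cells expressing human SERT were incubated 90 min at room temperature in Krebs-HEPES buffer pH 7.4 with […] [125I]-RTI-55 and compound (10^−5 to 10^−12 M), in duplicate. Nonspecific binding defined with 10 μM citalopram; IC50 converted to Ki by Cheng-Prusoff.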

Data set [3] relates to capsaicin-induced mechanical allodynia. Put plainly: Capsaicin-induced mechanical allodynia rat model. It is filed as in vivo. Particulars: sc, male Sprague-Dawley rats, single subcutaneous 10 mg/kg dose on Day 7, measurement 1 hour post dose, mean of eight animals. As for the experimental part: On Day 0, male Sprague-Dawley rats (about 150 g each) in the dark cycle were placed in suspended wire-bottom cages and allowed to acclimate for 0.5 hour in a darkened, quiet room. The Day 0 paw withdrawal threshold (PWT) was determined on the left hind paw by Von Frey hair assessment using the Dixon up and down method. After assessment, the plantar muscle of the right hind paw was injected with 100 μL of capsaicin (0.25% weight/volume (w/v) in 10% ethanol, 10% Tween 80, in sterile saline).
On Day 6, the PWT of the left hind paw (contralateral from the injected paw) was determined for each animal. Animals on Day 6 with PWT≦11.7 g were considered allodynic responders and were regrouped so that the animals in each cage had similar mean PWT values.
On Day 7, the responders were dosed subcutaneously with 10 mg of the test compound per kg of rat body weight in vehicle, or were administered vehicle (10 mL/kg) alone. The vehicle was phosphate buffered saline containing 2% CREMOPHOR® EL (BASF). The contralateral (i.e., left hind paw) PWT values were determined at 1 hour after the single dose, with the investigator blinded to the dosing scheme. For each animal, the Day 6 PWT value was subtracted from the Day 7, 1 hour PWT value for the 10 mg/kg doses of test compound to give a delta PWT value (Delta PWT (drug)), which represents the change in PWT due to the 1 hour drug treatment. In the case of vehicle-alone treated animals, the Day 6 PWT value was subtracted from the Day 7, 1 hour PWT for the 10 mL/kg doses of vehicle and the values averaged (mean Delta PWT (vehicle)). In addition, the Day 6 PWT was subtracted from the Day 0 PWT to give the baseline level (Baseline) of allodynia present in each animal. Percent inhibition of allodynia of each animal, normalized for vehicle controls, was determined using the following formula: […]

Counter-ions that a name gives are not always drawn. Some results are limits rather than exact numbers.

human serotonin transporter, sequence (P31645 whole entry): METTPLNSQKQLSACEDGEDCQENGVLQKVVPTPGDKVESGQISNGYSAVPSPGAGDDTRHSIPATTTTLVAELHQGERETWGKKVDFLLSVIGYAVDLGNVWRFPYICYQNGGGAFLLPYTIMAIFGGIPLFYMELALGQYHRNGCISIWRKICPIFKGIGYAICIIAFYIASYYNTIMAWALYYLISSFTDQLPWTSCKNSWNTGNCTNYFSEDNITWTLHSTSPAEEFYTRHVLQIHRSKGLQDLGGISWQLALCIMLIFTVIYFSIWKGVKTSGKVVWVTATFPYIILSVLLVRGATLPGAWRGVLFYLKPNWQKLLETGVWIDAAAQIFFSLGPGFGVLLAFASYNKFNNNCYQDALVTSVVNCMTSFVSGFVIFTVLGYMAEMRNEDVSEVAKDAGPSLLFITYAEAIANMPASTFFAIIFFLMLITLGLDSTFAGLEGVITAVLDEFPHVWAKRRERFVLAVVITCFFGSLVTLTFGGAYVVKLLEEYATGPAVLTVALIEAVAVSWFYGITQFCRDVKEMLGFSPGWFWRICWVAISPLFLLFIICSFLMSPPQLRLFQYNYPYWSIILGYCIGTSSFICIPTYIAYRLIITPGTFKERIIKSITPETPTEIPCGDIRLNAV
human norepinephrine transporter, sequence (P23975 whole entry): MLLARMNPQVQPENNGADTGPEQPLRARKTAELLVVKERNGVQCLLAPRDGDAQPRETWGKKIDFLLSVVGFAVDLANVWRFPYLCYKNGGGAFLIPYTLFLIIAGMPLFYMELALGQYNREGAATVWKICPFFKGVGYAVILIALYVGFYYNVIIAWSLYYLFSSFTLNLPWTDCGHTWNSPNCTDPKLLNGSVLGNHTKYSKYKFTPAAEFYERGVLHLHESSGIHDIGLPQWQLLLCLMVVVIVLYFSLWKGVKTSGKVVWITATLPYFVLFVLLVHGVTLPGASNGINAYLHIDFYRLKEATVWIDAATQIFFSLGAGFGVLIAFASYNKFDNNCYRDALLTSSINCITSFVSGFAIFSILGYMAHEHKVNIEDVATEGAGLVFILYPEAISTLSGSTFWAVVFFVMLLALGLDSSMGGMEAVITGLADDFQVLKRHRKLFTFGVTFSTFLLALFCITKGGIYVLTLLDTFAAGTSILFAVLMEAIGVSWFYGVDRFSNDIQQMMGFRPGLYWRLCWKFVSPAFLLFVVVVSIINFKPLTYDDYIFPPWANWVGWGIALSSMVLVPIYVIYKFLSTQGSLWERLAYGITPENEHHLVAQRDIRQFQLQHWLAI

On to `Cc1ccc(Oc2nc(C)ccc2OC[C@H]2CCCNC2)cc1` [Example 8, (S)-2-(4-methyl-phenoxy)-6-methyl-3-(piperidin-3-ylmethoxy)-pyridine fumaric acid], for which the Ki in data set [1] was determined as 10.3 nM; in data set [2], 159 nM. In addition, the inhibition in vivo at 10 mg/kg in data set [3] came to 22%.
`COc1cc(C)ccc1Oc1nc(C)ccc1OC[C@H]1CCCNC1` [Example 4, (S)-2-(2-methoxy-4-methyl-phenoxy)-6-methyl-3-(piperidin-3-ylmethoxy)-pyridine fumaric acid]: the Ki stood at 7.4 nM in data set [1] and 170 nM in data set [2]. In addition, the inhibition in vivo at 10 mg/kg in data set [3] was determined as 43%.
The matching figures for `Cc1ccc(Oc2nc(C)ccc2OC[C@H]2CCCNC2)c(Cl)c1` [Example 14, (S)-2-(2-chloro-4-methyl-phenoxy)-6-methyl-3-(piperidin-3-ylmethoxy)-pyridine fumaric acid]: 2.8 nM, 40 nM and 48%.
The like results for `CCc1ccc(Oc2nc(C)ccc2OC[C@H]2CCCNC2)c(OC)c1` [Example 11, (S)-2-(4-ethyl-2-methoxy-phenoxy)-6-methyl-3-(piperidin-3-ylmethoxy)-pyridine fumaric acid] were, in that order, 18 nM, 180 nM and 9%.
The matching figures for `Cc1ccc(OC[C@H]2CCCNC2)c(Oc2c(F)cc(F)cc2F)n1` [Example 44, (S)-6-methyl-2-(2,4,6-trifluoro-phenoxy)-3-(piperidin-3-ylmethoxy)-pyridine hydrochloride]: 4.8 nM, 82 nM and 18%.
In the case of `COc1ccc(Oc2nc(C)ccc2OC[C@H]2CCCNC2)cc1` [Example 6, (S)-2-(4-methoxy-phenoxy)-6-methyl-3-(piperidin-3-ylmethoxy)-pyridine fumaric acid], the Ki in data set [1] worked out at 16 nM; in data set [2], 360 nM. The molecule further yielded an inhibition in vivo at 10 mg/kg in data set [3] of 16%.
The like results for `Cc1ccc(OC[C@H]2CCCNC2)c(Oc2ccc(F)cc2F)n1` [Example 25, (S)-2-(2,4-difluoro-phenoxy)-6-methyl-3-(piperidin-3-ylmethoxy)-pyridine fumaric acid] were, in that order, 3.3 nM, 72 nM and 77%.
In the case of `COc1cc(Cl)ccc1Oc1nc(C)ccc1OC[C@H]1CCCNC1` [Example 12, (S)-2-(4-chloro-2-methoxy-phenoxy)-6-methyl-3-(piperidin-3-ylmethoxy)-pyridine fumaric acid], the Ki in data set [1] is 8.7 nM; in data set [2] it was 120 nM. The molecule further registered an inhibition in vivo at 10 mg/kg in data set [3] of 88%.
For the molecule `Cc1ccc(OC[C@H]2CCCNC2)c(Oc2cc(F)c(F)cc2F)n1` [Example 29, (S)-6-methyl-2-(2,4,5-trifluoro-phenoxy)-3-(piperidin-3-ylmethoxy)-pyridine fumaric acid], the inhibition constant Ki was 5.3 nM in data set [1] and 130 nM in data set [2]. In addition, the inhibition in vivo at 10 mg/kg in data set [3] is 11%.
In the case of `O=C(O)/C=C/C(=O)O.c1ccc(COc2ncccc2OC[C@H]2CCCNC2)cc1` [Example 77, (S)-2-benzyloxy-3-(piperidin-3-ylmethoxy)-pyridine fumaric acid], the melting point is 165 to 167 °C (dec.). In data set [1], the affinity corresponds to a Ki of 6100 nM. For the same molecule, affinity in data set [2] was put at a Ki of 7200 nM.
The matching figures for `FC(F)(F)Oc1cccc(Oc2ncccc2OC[C@H]2CCCNC2)c1.O=C(O)/C=C/C(=O)O` [Example 70, (S)-3-(piperidin-3-ylmethoxy)-2-(3-trifluoromethoxy-phenoxy)-pyridine fumaric acid]: 144 to 146 °C, 102 nM and 9700 nM.
The like results for `Cl.c1ccc(Oc2ccccc2OC[C@H]2CCCNC2)cc1` [Example 43, (S)-3-(2-phenoxy-phenoxymethyl)-piperidine hydrochloride] were, in that order, 134 to 136 °C, 0.7 nM and 2300 nM.
The matching figures for `O=C(O)/C=C/C(=O)O.c1ccc(CCCOc2ncccc2OC[C@H]2CCCNC2)cc1` [Example 83, (S)-2-(3-phenyl-propoxy)-3-(piperidin-3-ylmethoxy)-pyridine fumaric acid]: 141 to 142 °C (dec.), 210 nM and 10 nM.
As for `Cc1ccc(OC[C@H]2CCCNC2)c(Oc2ccc(Cl)cc2F)n1` [Example 23, (S)-2-(4-chloro-2-fluoro-phenoxy)-6-methyl-3-(piperidin-3-ylmethoxy)-pyridine fumaric acid], the figures for the Ki in data set [1] and in data set [2] were 5.3 nM and 28 nM, respectively. For the same molecule, in data set [3], the inhibition in vivo at 10 mg/kg is 65%.
Turning to `CC(C)Oc1ccccc1Oc1ncccc1OC[C@H]1CCCNC1.O=C(O)/C=C/C(=O)O` [Example 74, (S)-2-(2-isopropoxy-phenoxy)-3-(piperidin-3-ylmethoxy)-pyridine fumaric acid], the melting point was 129 to 134 °C (dec.). The Ki in data set [1] came out at 11 nM. Besides, the Ki in data set [2] was > 10000 nM.
On to `Cc1ccc(OC[C@H]2CCCNC2)c(Oc2c(F)cc(Cl)cc2F)n1` [Example 45, (S)-2-(4-chloro-2,6-difluoro-phenoxy)-6-methyl-3-(piperidin-3-ylmethoxy)-pyridine hydrochloride], for which the figures for the inhibition constant Ki in data set [1] and in data set [2] were 8.4 nM and 29 nM, respectively. At 10 mg/kg the inhibition in vivo in data set [3] was 1%.
`Cc1cccc(Oc2ncccc2OC[C@H]2CCCNC2)c1.O=C(O)/C=C/C(=O)O` [Example 68, (S)-2-(3-methyl-phenoxy)-3-(piperidin-3-ylmethoxy)-pyridine fumaric acid] showed a melting point of 130 to 132 °C. In data set [1], the Ki was 6 nM. Besides, in data set [2], the Ki turned out to be 5800 nM.
